Key:
Type in all cases: in vivo, mongrel adult dogs
[1] = tested on: arterial mean blood pressure; test: Effects on arterial mean blood pressure
Method in brief: (§1)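 Readouts: aortic pressure by transducer through carotid cannula, aortic root flow electromagnetically, coronary sinus flow and oxygen tension through Morawitz cannulation. Subjects were anesthetized (pentobarbital) open-chest adult mongrel dogs of either sex given intravenous test compound or active placebo.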

aortic blood flow = test: Effects on aortic blood flow
Method in brief: as §1

coronary sinus out flow = test: Effects on coronary sinus out flow
Method in brief: as §1

[2] = tested on: coronary sinus oxygen tension; test: Effects on coronary sinus oxygen tension
Method in brief: as §1

heart rate = test: Effects on heart rate
Method in brief: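 Adult mongrel dogs of both sexes were anesthetized with pentobarbital and thoracotomized. Test agents, suspended or dissolved in 0.2% CMC, pH 6 HCl solution or saline, were injected intravenously into the brachial vein. Hemodynamic and coronary sinus parameters were then recorded.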

COc1ccc(C(C#N)N2CCN(CC=Cc3ccccc3)CC2)cc1OC (centres unmarked) [Compound D]
Changes (%) of basal values, arterial mean blood pressure ([1]; 2.0 mg/kg i.v., 1 min): +1.6%
Changes (%) of basal values, arterial mean blood pressure ([1]; 2.0 mg/kg i.v., 5 min): -3.0%
Changes (%) of basal values, arterial mean blood pressure ([1]; 2.0 mg/kg i.v., 10 min): -1.5%
Changes (%) of basal values, arterial mean blood pressure ([1]; 2.0 mg/kg i.v., 20 min): -0.5%
Changes (%) of basal values, arterial mean blood pressure ([1]; 2.0 mg/kg i.v., 30 min): 0%
Changes (%) of basal values, arterial mean blood pressure ([1]; 2.0 mg/kg i.v., 40 min): 0%
Changes (%) of basal values, arterial mean blood pressure ([1]; 2.0 mg/kg i.v., imm.): -13.6%
Changes (%) of basal values, arterial mean blood pressure ([1]; 6.0 mg/kg i.v., 1 min): -9.7%
Changes (%) of basal values, arterial mean blood pressure ([1]; 6.0 mg/kg i.v., 5 min): -10.3%
Changes (%) of basal values, arterial mean blood pressure ([1]; 6.0 mg/kg i.v., 10 min): -10.0%
Changes (%) of basal values, arterial mean blood pressure ([1]; 6.0 mg/kg i.v., 20 min): -6.0%
Changes (%) of basal values, arterial mean blood pressure ([1]; 6.0 mg/kg i.v., 30 min): -3.0%
Changes (%) of basal values, arterial mean blood pressure ([1]; 6.0 mg/kg i.v., 40 min): -1.0%
Changes (%) of basal values, arterial mean blood pressure ([1]; 6.0 mg/kg i.v., imm.): -36.1%
Changes (%) of basal values, arterial mean blood pressure ([1]; 20.0 mg/kg i.v., 1 min): -19.7%
Changes (%) of basal values, arterial mean blood pressure ([1]; 20.0 mg/kg i.v., 5 min): -14.4%
Changes (%) of basal values, arterial mean blood pressure ([1]; 20.0 mg/kg i.v., 10 min): -13.5%
Changes (%) of basal values, arterial mean blood pressure ([1]; 20.0 mg/kg i.v., 20 min): -8.3%
Changes (%) of basal values, arterial mean blood pressure ([1]; 20.0 mg/kg i.v., 30 min): -5.1%
Changes (%) of basal values, arterial mean blood pressure ([1]; 20.0 mg/kg i.v., 40 min): -3.1%
Changes (%) of basal values, arterial mean blood pressure ([1]; 20.0 mg/kg i.v., imm.): -45.0%
Effects on arterial mean blood pressure (in words) ([1]; i.v., anesthetized dogs): hypotensive effects being proportioned to their doses which were of long duration
Changes (%) of basal values, aortic blood flow (aortic blood flow; 2.0 mg/kg i.v., 1 min): +3.3%
Changes (%) of basal values, aortic blood flow (aortic blood flow; 2.0 mg/kg i.v., 5 min): -0.8%
Changes (%) of basal values, aortic blood flow (aortic blood flow; 2.0 mg/kg i.v., 10 min): 0%
Changes (%) of basal values, aortic blood flow (aortic blood flow; 2.0 mg/kg i.v., 20 min): 0%
Changes (%) of basal values, aortic blood flow (aortic blood flow; 2.0 mg/kg i.v., 30 min): 0%
Changes (%) of basal values, aortic blood flow (aortic blood flow; 2.0 mg/kg i.v., 40 min): 0%
Changes (%) of basal values, aortic blood flow (aortic blood flow; 2.0 mg/kg i.v., imm.): +8.3%
Changes (%) of basal values, aortic blood flow (aortic blood flow; 6.0 mg/kg i.v., 1 min): +3.3%
Changes (%) of basal values, aortic blood flow (aortic blood flow; 6.0 mg/kg i.v., 5 min): -2.7%
Changes (%) of basal values, aortic blood flow (aortic blood flow; 6.0 mg/kg i.v., 10 min): +0.7%
Changes (%) of basal values, aortic blood flow (aortic blood flow; 6.0 mg/kg i.v., 20 min): +0.5%
Changes (%) of basal values, aortic blood flow (aortic blood flow; 6.0 mg/kg i.v., 30 min): 0%
Changes (%) of basal values, aortic blood flow (aortic blood flow; 6.0 mg/kg i.v., 40 min): 0%
Changes (%) of basal values, aortic blood flow (aortic blood flow; 6.0 mg/kg i.v., imm.): +12.0%
Changes (%) of basal values, aortic blood flow (aortic blood flow; 20.0 mg/kg i.v., 1 min): +16.3%
Changes (%) of basal values, aortic blood flow (aortic blood flow; 20.0 mg/kg i.v., 5 min): -3.8%
Changes (%) of basal values, aortic blood flow (aortic blood flow; 20.0 mg/kg i.v., 10 min): -4.0%
Changes (%) of basal values, aortic blood flow (aortic blood flow; 20.0 mg/kg i.v., 20 min): -3.4%
Changes (%) of basal values, aortic blood flow (aortic blood flow; 20.0 mg/kg i.v., 30 min): -1.8%
Changes (%) of basal values, aortic blood flow (aortic blood flow; 20.0 mg/kg i.v., 40 min): -0.3%
Changes (%) of basal values, aortic blood flow (aortic blood flow; 20.0 mg/kg i.v., imm.): +27.4%
Effects on aortic blood flow (in words) (aortic blood flow; i.v., anesthetized dogs): an increase in blood flow immediately after administration, followed by a decrease in blood flow
Changes(%) of basal values, coronary sinus out flow (coronary sinus out flow; 2.0 mg/kg i.v., 1 min): +1.6%
Changes(%) of basal values, coronary sinus out flow (coronary sinus out flow; 2.0 mg/kg i.v., 5 min): -3.1%
Changes(%) of basal values, coronary sinus out flow (coronary sinus out flow; 2.0 mg/kg i.v., 10 min): -1.0%
Changes(%) of basal values, coronary sinus out flow (coronary sinus out flow; 2.0 mg/kg i.v., 20 min): 0%
Changes(%) of basal values, coronary sinus out flow (coronary sinus out flow; 2.0 mg/kg i.v., 30 min): 0%
Changes(%) of basal values, coronary sinus out flow (coronary sinus out flow; 2.0 mg/kg i.v., 40 min): 0%
Changes(%) of basal values, coronary sinus out flow (coronary sinus out flow; 2.0 mg/kg i.v., imm.): +6.2%
Changes(%) of basal values, coronary sinus out flow (coronary sinus out flow; 6.0 mg/kg i.v., 1 min): +9.1%
Changes(%) of basal values, coronary sinus out flow (coronary sinus out flow; 6.0 mg/kg i.v., 5 min): -0.2%
Changes(%) of basal values, coronary sinus out flow (coronary sinus out flow; 6.0 mg/kg i.v., 10 min): -0.4%
Changes(%) of basal values, coronary sinus out flow (coronary sinus out flow; 6.0 mg/kg i.v., 20 min): -0.2%
Changes(%) of basal values, coronary sinus out flow (coronary sinus out flow; 6.0 mg/kg i.v., 30 min): 0%
Changes(%) of basal values, coronary sinus out flow (coronary sinus out flow; 6.0 mg/kg i.v., 40 min): 0%
Changes(%) of basal values, coronary sinus out flow (coronary sinus out flow; 6.0 mg/kg i.v., imm.): +23.0%
Changes(%) of basal values, coronary sinus out flow (coronary sinus out flow; 20.0 mg/kg i.v., 1 min): +49.3%
Changes(%) of basal values, coronary sinus out flow (coronary sinus out flow; 20.0 mg/kg i.v., 5 min): +9.1%
Changes(%) of basal values, coronary sinus out flow (coronary sinus out flow; 20.0 mg/kg i.v., 10 min): +8.4%
Changes(%) of basal values, coronary sinus out flow (coronary sinus out flow; 20.0 mg/kg i.v., 20 min): +8.0%
Changes(%) of basal values, coronary sinus out flow (coronary sinus out flow; 20.0 mg/kg i.v., 30 min): +5.7%
Changes(%) of basal values, coronary sinus out flow (coronary sinus out flow; 20.0 mg/kg i.v., 40 min): +3.0%
Changes(%) of basal values, coronary sinus out flow (coronary sinus out flow; 20.0 mg/kg i.v., imm.): +66.2%
Effects on coronary sinus out flow (in words) (coronary sinus out flow; i.v., anesthetized dogs): a marked increasing effect on coronary sinus out flow, which was proportioned to doses thereof and of long duration
Changes(%) of basal values, coronary sinus oxygen tension ([2]; 2.0 mg/kg i.v., 1 min): +2.7%
Changes(%) of basal values, coronary sinus oxygen tension ([2]; 2.0 mg/kg i.v., 5 min): +0.5%
Changes(%) of basal values, coronary sinus oxygen tension ([2]; 2.0 mg/kg i.v., 10 min): -1.0%
Changes(%) of basal values, coronary sinus oxygen tension ([2]; 2.0 mg/kg i.v., 20 min): -0.5%
Changes(%) of basal values, coronary sinus oxygen tension ([2]; 2.0 mg/kg i.v., 30 min): 0%
Changes(%) of basal values, coronary sinus oxygen tension ([2]; 2.0 mg/kg i.v., 40 min): 0%
Changes(%) of basal values, coronary sinus oxygen tension ([2]; 2.0 mg/kg i.v., imm.): +6.7%
Changes(%) of basal values, coronary sinus oxygen tension ([2]; 6.0 mg/kg i.v., 1 min): +14.0%
Changes(%) of basal values, coronary sinus oxygen tension ([2]; 6.0 mg/kg i.v., 5 min): +5.8%
Changes(%) of basal values, coronary sinus oxygen tension ([2]; 6.0 mg/kg i.v., 10 min): +1.0%
Changes(%) of basal values, coronary sinus oxygen tension ([2]; 6.0 mg/kg i.v., 20 min): -1.0%
Changes(%) of basal values, coronary sinus oxygen tension ([2]; 6.0 mg/kg i.v., 30 min): 0%
Changes(%) of basal values, coronary sinus oxygen tension ([2]; 6.0 mg/kg i.v., 40 min): 0%
Changes(%) of basal values, coronary sinus oxygen tension ([2]; 6.0 mg/kg i.v., imm.): +23.8%
Changes(%) of basal values, coronary sinus oxygen tension ([2]; 20.0 mg/kg i.v., 1 min): +43.8%
Changes(%) of basal values, coronary sinus oxygen tension ([2]; 20.0 mg/kg i.v., 5 min): -21.2%
Changes(%) of basal values, coronary sinus oxygen tension ([2]; 20.0 mg/kg i.v., 10 min): +8.4%
Changes(%) of basal values, coronary sinus oxygen tension ([2]; 20.0 mg/kg i.v., 20 min): +3.2%
Changes(%) of basal values, coronary sinus oxygen tension ([2]; 20.0 mg/kg i.v., 30 min): +2.0%
Changes(%) of basal values, coronary sinus oxygen tension ([2]; 20.0 mg/kg i.v., 40 min): +0.2%
Changes(%) of basal values, coronary sinus oxygen tension ([2]; 20.0 mg/kg i.v., imm.): +60.3%
Effects on coronary sinus oxygen tension (in words) ([2]; i.v., anesthetized dogs): a significant increase in coronary sinus oxygen tension, effect of which was of long duration
Changes(%) of basal values, heart rate (heart rate; 2.0 mg/kg i.v., 1 min): +1.0%
Changes(%) of basal values, heart rate (heart rate; 2.0 mg/kg i.v., 5 min): 0%
Changes(%) of basal values, heart rate (heart rate; 2.0 mg/kg i.v., 10 min): 0%
Changes(%) of basal values, heart rate (heart rate; 2.0 mg/kg i.v., 20 min): 0%
Changes(%) of basal values, heart rate (heart rate; 2.0 mg/kg i.v., 30 min): 0%
Changes(%) of basal values, heart rate (heart rate; 2.0 mg/kg i.v., 40 min): 0%
Changes(%) of basal values, heart rate (heart rate; 2.0 mg/kg i.v., imm.): -0.6%
Changes(%) of basal values, heart rate (heart rate; 6.0 mg/kg i.v., 1 min): +1.5%
Changes(%) of basal values, heart rate (heart rate; 6.0 mg/kg i.v., 5 min): -0.9%
Changes(%) of basal values, heart rate (heart rate; 6.0 mg/kg i.v., 10 min): -1.6%
Changes(%) of basal values, heart rate (heart rate; 6.0 mg/kg i.v., 20 min): -1.0%
Changes(%) of basal values, heart rate (heart rate; 6.0 mg/kg i.v., 30 min): -0.5%
Changes(%) of basal values, heart rate (heart rate; 6.0 mg/kg i.v., 40 min): 0%
Changes(%) of basal values, heart rate (heart rate; 6.0 mg/kg i.v., imm.): -1.5%
Changes(%) of basal values, heart rate (heart rate; 20.0 mg/kg i.v., 1 min): -3.1%
Changes(%) of basal values, heart rate (heart rate; 20.0 mg/kg i.v., 5 min): -3.5%
Changes(%) of basal values, heart rate (heart rate; 20.0 mg/kg i.v., 10 min): -3.9%
Changes(%) of basal values, heart rate (heart rate; 20.0 mg/kg i.v., 20 min): -2.8%
Changes(%) of basal values, heart rate (heart rate; 20.0 mg/kg i.v., 30 min): -1.3%
Changes(%) of basal values, heart rate (heart rate; 20.0 mg/kg i.v., 40 min): -0.5%
Changes(%) of basal values, heart rate (heart rate; 20.0 mg/kg i.v., imm.): -14.5%
Effects on heart rate (in words) (heart rate; i.v., anesthetized dogs): a slight negative chronotropic effect
